Converted amounts (≈) assume the structure as drawn. Where a name gives a salt, the structure may show the parent alone.
Key:
[1] = test system: human lung (A549); assay: In vitro microdilution inhibition, human lung A549; type: cell-based; conditions: A549, 72 hours, 50% of cells killed
Text: (§1) As shown in Table III the compounds of the present invention exert an in vitro antitumor effect. The following cells lines were employed: human lung (A549); resistant human lung with low topo II activity (A549-VP); murine melanoma (B16); human colon tumor (HCT116); human colon tumor with elevated p170 levels (HCTVM); human colon tumor with low topo II activity (HCTVP); and another human colon carcinoma cell line (Moser). In the Table, the designation "NT" indicates the compound was not tested against the specified cell line. The cell lines were maintained in continuous culture at 37°, 5% CO2 and high humidity. Cells were harvested in log phase growth and suspended at concentration of 25,000 cells/mL. A […] aliquot was then added to each well (i.e., 3,750 cells per well) of a 96-well flat bottom plate and the cells were allowed to attach over a 24 hour period. After this 24 hour incubation, a 50 μL sample of the specified compound was added to the first (top) well of each column, and the remaining wells of each column serially diluted, 1:4, and allowed to incubate for 72 hours at 37° C., 5% CO2 and high humidity. Following incubation, 50 μL of freshly prepared stain solution was added to each well. After a 3 hour incubation at room temperature, absorbance was read at 450 nm on a microplate reader to determine the compound concentration at which 50% of the cells were killed, such concentration referred to as the "IC50 ".

[2] = test system: murine melanoma (B16); assay: In vitro microdilution inhibition, B16; type: cell-based; conditions: Mus musculus; B16, 72 hours, 50% of cells killed
Text: as §1

[3] = test system: human colon tumor (HCT116); assay: In vitro microdilution inhibition, HCT116; type: cell-based; conditions: HCT-116, 72 hours, 50% of cells killed
Text: as §1

[4] = test system: human colon tumor with low topo II activity (HCTVP); assay: In vitro microdilution inhibition, HCTVP; type: cell-based; conditions: 72 hours, 50% of cells killed
Text: as §1

[5] = test system: human colon carcinoma cell line (Moser); assay: In vitro microdilution inhibition, Moser; type: cell-based; conditions: 72 hours, 50% of cells killed
Text: as §1

[6] = test system: p388 murine leukemia; assay: In vivo activity against p388 murine leukemia in an acute mouse model; conditions: for AWC (average weight change per mouse): before treatment to day five
Description: CDF1 mice of both sexes weighing between 16 and 25 gm. were used, with a 2 gm. weight range and same sex and source used per experiment. BDF1 mice also were used with the same weight, sex and source parameters. Control and test animals were injected interperitoneally with suspension of 1×10^6 p388 murine leukemia cells (0.5 mL dose) on day 0. Groups of 4-6 mice were used for each dosage amount they were treated with 5 doses on day one. A group of ten saline treated control mice was included in each set of experiments. A 30 day protocol was employed with mean survival time in days being determined for each group of mice with the number of survivors at the end of the 30 day period being noted. The mice were weighed before treatment and again on day five. The values listed for average weight change (AWC) is the average weight change per mouse at the specified dose. The change in weight was taken as a measure of drug toxicity. A loss in weight of up to 2 grams is not considered excessive. The results were determined in terms of % T/C which is the ratio of the mean survival time of the treated group to the mean survival time of the saline treated group times 100.

[7] = test system: resistant human lung with low topo II activity (A549-VP); assay: In vitro microdilution inhibition, resistant human lung A549-VP; type: cell-based; conditions: A549VP, 72 hours, 50% of cells killed
Text: as §1

[8] = test system: human colon tumor with elevated p170 levels (HCTVM); assay: In vitro microdilution inhibition, HCTVM; type: cell-based; conditions: 72 hours, 50% of cells killed
Text: as §1

[9] = Mus musculus, P388, 720 h, CDF1 (mixed sex), 5 mg/kg, read-out: % T/C (mean survival time treated/control)
[10] = Mus musculus, P388, 720 h, CDF1 (mixed sex), 15 mg/kg, read-out: % T/C (mean survival time treated/control)
[11] = Mus musculus, P388, 720 h, CDF1 (female only), 4 mg/kg, read-out: % T/C (mean survival time treated/control)
[12] = Mus musculus, P388, 720 h, CDF1 (female only), 12 mg/kg, read-out: % T/C (mean survival time treated/control)
[13] = Mus musculus, P388, 720 h, CDF1 (female only), 36 mg/kg, read-out: % T/C (mean survival time treated/control)

SMILES | IC50 [1] [µg/mL] | IC50 [2] [µg/mL] | IC50 [3] [µg/mL] | IC50 [4] [µg/mL] | IC50 [5] [µg/mL] | AWC (average weight change per mouse) ([6]; CDF1 (mixed sex), 5 mg/kg) | AWC (average weight change per mouse) ([6]; CDF1 (mixed sex), 15 mg/kg) | response vs control in vivo at 5 mg/kg [6, 9] [%] | response vs control in vivo at 15 mg/kg [6, 10] [%] | IC50 [7] [µg/mL] | IC50 [8] [µg/mL] | other results
COCOc1cccc2c1C1(CC2)C(=O)c2c(O)c3c(c(O)c2C1=O)C(=O)C=CC3=O [Example 2, 2',3'-Dihydro-7'-(methoxymethoxy)-1H-indene-1'-spiro-2-[4,9-dihydroxy-2H-benz[f]indene-1,3,5,8-tetrone]] | 0.36 (≈ 0.856 µM) | 0.14 (≈ 0.333 µM) | 0.25 (≈ 0.595 µM) | 0.29 (≈ 0.69 µM) | 1.07 (≈ 2.55 µM) | -0.1 | -1.3 | 105 | 110 |  |  | % T/C (mean survival time treated/control) ([6]; CDF1 (mixed sex), 45 mg/kg): Toxic
O=C1C=CC(=O)c2c(O)c3c(c(O)c21)C(=O)C1(CCc2cccc(O)c21)C3=O [Example 3, 2',3'-Dihydro-7'-hydroxy-1H-indene-1'-spiro-2-[4,9-dihydroxy-benz[f]indene-1,3,5,8-tetrone]] | 1.14 (≈ 3.03 µM) | 0.88 (≈ 2.34 µM) | 1.13 (≈ 3 µM) | 0.86 (≈ 2.29 µM) | 3.07 (≈ 8.16 µM) |  |  |  |  |  |  | 
CCOC(OCC)c1cc2cc3c(c(OCOC)c2c(OC)n1)C1(CC3)C(=O)c2c(O)c3c(c(O)c2C1=O)C(=O)C=CC3=O [Example 9, 6',7'-Dihydro-1-methoxy-9'-(methoxymethoxy-3-(diethoxymethyl)-spiro[2H-benz[f]indene-2,8'-8H]cyclopent[g]isoquinoline]-1,3,5,8-tetrone] | 4.42 (≈ 7.32 µM) | 0.78 (≈ 1.29 µM) | 0.71 (≈ 1.18 µM) | 2.38 (≈ 3.94 µM) | 4.4 (≈ 7.29 µM) |  |  |  |  |  |  | 
CCNC1=CC(=O)c2c(O)c3c(c(O)c2C1=O)C(=O)C1(CCc2cccc(O)c21)C3=O (stereo not shown) [Example 15, 2',3'-Dihydro-6-ethylamino-7'-hydroxy-1H-indene-1'-spiro-2-[4,9-dihydroxy-2H-benz[f]-indene-1,3,5,8-tetrone]] | < 0.03 | 0.03 (≈ 0.0715 µM) | 0.03 (≈ 0.0715 µM) | 0.05 (≈ 0.119 µM) |  | -0.1 | -0.2 | 100 | 115 | 0.05 (≈ 0.119 µM) | 0.03 (≈ 0.0715 µM) | % T/C (mean survival time treated/control) ([6]; CDF1 (mixed sex), 45 mg/kg): Toxic
COCOc1cccc2c1C1(CC2)C(=O)c2c(O)c3c(c(O)c2C1=O)C(=O)C(NCCO)=CC3=O (stereo not shown) [Example 16, 2',3'-Dihydro-7'-(methoxymethoxy)-1H-indene-1'-spiro-[4,9-dihydroxy-6-(2-hydroxyethylamino)-2H-benz[f]indene-1,3,5,8-tetrone]] | < 0.03 | 0.03 (≈ 0.0626 µM) | 0.05 (≈ 0.104 µM) | 0.04 (≈ 0.0834 µM) |  |  |  |  |  | 0.04 (≈ 0.0834 µM) | 0.06 (≈ 0.125 µM) | AWC (average weight change per mouse) ([6]; CDF1 (female only), 3.3 mg/kg): -0.1; AWC (average weight change per mouse) ([6]; CDF1 (female only), 10 mg/kg): -1.1; AWC (average weight change per mouse) ([6]; CDF1 (female only), 30 mg/kg): -2.6; response vs control in vivo at 3.3 mg/kg ([6]; Mus musculus, P388, 720 h, CDF1 (female only), 3.3 mg/kg, read-out: % T/C (mean survival time treated/control)): 95%; response vs control in vivo at 10 mg/kg ([6]; Mus musculus, P388, 720 h, CDF1 (female only), 10 mg/kg, read-out: % T/C (mean survival time treated/control)): 95%; response vs control in vivo at 30 mg/kg ([6]; Mus musculus, P388, 720 h, CDF1 (female only), 30 mg/kg, read-out: % T/C (mean survival time treated/control)): 130%
CCCCCc1cc2cc3c(c(O)c2c(=O)[nH]1)C1(CC3)C(=O)c2c(O)c3c(c(O)c2C1=O)C(=O)C(NCC)=CC3=O (stereo not shown) [Example 23, 2',6'7'-trihydro-4,9,9'-trihydroxy-3'-(n-pentyl)-6-ethylamino-spiro[2H-benz[f]-indene-2,8'-[8H]cyclopent[g]-isoquinoline]-1,1',3,5,8-pentone] | 0.14 (≈ 0.252 µM) | 0.39 (≈ 0.701 µM) | 0.28 (≈ 0.503 µM) | 0.1 (≈ 0.18 µM) |  |  |  |  |  | 0.1 (≈ 0.18 µM) | 0.22 (≈ 0.395 µM) | AWC (average weight change per mouse) ([6]; CDF1 (female only), 4 mg/kg): 1.8; AWC (average weight change per mouse) ([6]; CDF1 (female only), 12 mg/kg): 1.7; AWC (average weight change per mouse) ([6]; CDF1 (female only), 36 mg/kg): 0.7; response vs control in vivo at 4 mg/kg [6, 11]: 100%; response vs control in vivo at 12 mg/kg [6, 12]: 95%; response vs control in vivo at 36 mg/kg [6, 13]: 100%
CN(C)CCNC1=CC(=O)c2c(O)c3c(c(O)c2C1=O)C(=O)C1(CCc2cccc(O)c21)C3=O (stereo not shown) [Example 24, hydrochloride] | 0.5 | 0.4 | 0.2 | 1.1 |  | -0.3 | -0.3 | 110 | 110 | 1.4 | 0.7 | AWC (average weight change per mouse) ([6]; CDF1 (mixed sex), 45 mg/kg): -0.9; response vs control in vivo at 45 mg/kg ([6]; Mus musculus, P388, 720 h, CDF1 (mixed sex), 45 mg/kg, read-out: % T/C (mean survival time treated/control)): 120%
CCCCCc1cc2cc3c(c(O)c2c(=O)[nH]1)C1(CC3)C(=O)c2c(O)c3c(c(O)c2C1=O)C(=O)C(NCCN(C)C)=CC3=O (stereo not shown) [Example 25, hydrochloride] | 0.14 | 0.14 | 0.27 | 0.13 |  |  |  |  |  | 0.16 | 0.22 | AWC (average weight change per mouse) ([6]; CDF1 (female only), 4 mg/kg): 0.9; AWC (average weight change per mouse) ([6]; CDF1 (female only), 12 mg/kg): -0.7; AWC (average weight change per mouse) ([6]; CDF1 (female only), 36 mg/kg): -1.6; response vs control in vivo at 4 mg/kg [6, 11]: 125%; response vs control in vivo at 12 mg/kg [6, 12]: 105%; response vs control in vivo at 36 mg/kg [6, 13]: 120%
